In article PMC5513037, “Examining the influence of specificity ligands and ATP-competitive ligands on the overall effectiveness of bivalent kinase inhibitors” (Proteome Science, 2017):

Key:
Assay in all cases: Dasatinib-matrix competition in K562 lysate
Details in all cases: residual binding 50 value; read-out: RB50 (the source's name)
TEX14 = target: T1, TEX14 (Homo sapiens, UniProt Q8IWB6)
T1 construct: endogenous in cells; host or cells: K562

ATR = target: T2, ATR (Homo sapiens, UniProt Q13535)
T2 construct: endogenous in cells; host or cells: K562

N-TAF1 = target: T3, N-TAF1 (Homo sapiens, UniProt P21675)
T3 construct: endogenous in cells; host or cells: K562

TTN = target: T4, TTN (Homo sapiens, UniProt Q8WZ42)
T4 construct: endogenous in cells; host or cells: K562

SPEG = target: T5, SPEG (Homo sapiens, UniProt Q15772)
T5 construct: endogenous in cells; host or cells: K562

ATM = ATM (Homo sapiens, UniProt Q13315); design: endogenous in cells; host or cells: K562
TKT = target: T6, TKT (Homo sapiens, UniProt P29401)
T6 construct: endogenous in cells; host or cells: K562

PIK3R4 = target: T7, PIK3R4 (Homo sapiens, UniProt Q99570)
T7 construct: endogenous in cells; host or cells: K562

OBSCN = target: T8, OBSCN (Homo sapiens, UniProt Q5VST9)
T8 construct: endogenous in cells; host or cells: K562

SMG1 = target: T9, SMG1 (Homo sapiens, UniProt Q96Q15)
T9 construct: endogenous in cells; host or cells: K562

Chain of ATM (Q13315 whole entry): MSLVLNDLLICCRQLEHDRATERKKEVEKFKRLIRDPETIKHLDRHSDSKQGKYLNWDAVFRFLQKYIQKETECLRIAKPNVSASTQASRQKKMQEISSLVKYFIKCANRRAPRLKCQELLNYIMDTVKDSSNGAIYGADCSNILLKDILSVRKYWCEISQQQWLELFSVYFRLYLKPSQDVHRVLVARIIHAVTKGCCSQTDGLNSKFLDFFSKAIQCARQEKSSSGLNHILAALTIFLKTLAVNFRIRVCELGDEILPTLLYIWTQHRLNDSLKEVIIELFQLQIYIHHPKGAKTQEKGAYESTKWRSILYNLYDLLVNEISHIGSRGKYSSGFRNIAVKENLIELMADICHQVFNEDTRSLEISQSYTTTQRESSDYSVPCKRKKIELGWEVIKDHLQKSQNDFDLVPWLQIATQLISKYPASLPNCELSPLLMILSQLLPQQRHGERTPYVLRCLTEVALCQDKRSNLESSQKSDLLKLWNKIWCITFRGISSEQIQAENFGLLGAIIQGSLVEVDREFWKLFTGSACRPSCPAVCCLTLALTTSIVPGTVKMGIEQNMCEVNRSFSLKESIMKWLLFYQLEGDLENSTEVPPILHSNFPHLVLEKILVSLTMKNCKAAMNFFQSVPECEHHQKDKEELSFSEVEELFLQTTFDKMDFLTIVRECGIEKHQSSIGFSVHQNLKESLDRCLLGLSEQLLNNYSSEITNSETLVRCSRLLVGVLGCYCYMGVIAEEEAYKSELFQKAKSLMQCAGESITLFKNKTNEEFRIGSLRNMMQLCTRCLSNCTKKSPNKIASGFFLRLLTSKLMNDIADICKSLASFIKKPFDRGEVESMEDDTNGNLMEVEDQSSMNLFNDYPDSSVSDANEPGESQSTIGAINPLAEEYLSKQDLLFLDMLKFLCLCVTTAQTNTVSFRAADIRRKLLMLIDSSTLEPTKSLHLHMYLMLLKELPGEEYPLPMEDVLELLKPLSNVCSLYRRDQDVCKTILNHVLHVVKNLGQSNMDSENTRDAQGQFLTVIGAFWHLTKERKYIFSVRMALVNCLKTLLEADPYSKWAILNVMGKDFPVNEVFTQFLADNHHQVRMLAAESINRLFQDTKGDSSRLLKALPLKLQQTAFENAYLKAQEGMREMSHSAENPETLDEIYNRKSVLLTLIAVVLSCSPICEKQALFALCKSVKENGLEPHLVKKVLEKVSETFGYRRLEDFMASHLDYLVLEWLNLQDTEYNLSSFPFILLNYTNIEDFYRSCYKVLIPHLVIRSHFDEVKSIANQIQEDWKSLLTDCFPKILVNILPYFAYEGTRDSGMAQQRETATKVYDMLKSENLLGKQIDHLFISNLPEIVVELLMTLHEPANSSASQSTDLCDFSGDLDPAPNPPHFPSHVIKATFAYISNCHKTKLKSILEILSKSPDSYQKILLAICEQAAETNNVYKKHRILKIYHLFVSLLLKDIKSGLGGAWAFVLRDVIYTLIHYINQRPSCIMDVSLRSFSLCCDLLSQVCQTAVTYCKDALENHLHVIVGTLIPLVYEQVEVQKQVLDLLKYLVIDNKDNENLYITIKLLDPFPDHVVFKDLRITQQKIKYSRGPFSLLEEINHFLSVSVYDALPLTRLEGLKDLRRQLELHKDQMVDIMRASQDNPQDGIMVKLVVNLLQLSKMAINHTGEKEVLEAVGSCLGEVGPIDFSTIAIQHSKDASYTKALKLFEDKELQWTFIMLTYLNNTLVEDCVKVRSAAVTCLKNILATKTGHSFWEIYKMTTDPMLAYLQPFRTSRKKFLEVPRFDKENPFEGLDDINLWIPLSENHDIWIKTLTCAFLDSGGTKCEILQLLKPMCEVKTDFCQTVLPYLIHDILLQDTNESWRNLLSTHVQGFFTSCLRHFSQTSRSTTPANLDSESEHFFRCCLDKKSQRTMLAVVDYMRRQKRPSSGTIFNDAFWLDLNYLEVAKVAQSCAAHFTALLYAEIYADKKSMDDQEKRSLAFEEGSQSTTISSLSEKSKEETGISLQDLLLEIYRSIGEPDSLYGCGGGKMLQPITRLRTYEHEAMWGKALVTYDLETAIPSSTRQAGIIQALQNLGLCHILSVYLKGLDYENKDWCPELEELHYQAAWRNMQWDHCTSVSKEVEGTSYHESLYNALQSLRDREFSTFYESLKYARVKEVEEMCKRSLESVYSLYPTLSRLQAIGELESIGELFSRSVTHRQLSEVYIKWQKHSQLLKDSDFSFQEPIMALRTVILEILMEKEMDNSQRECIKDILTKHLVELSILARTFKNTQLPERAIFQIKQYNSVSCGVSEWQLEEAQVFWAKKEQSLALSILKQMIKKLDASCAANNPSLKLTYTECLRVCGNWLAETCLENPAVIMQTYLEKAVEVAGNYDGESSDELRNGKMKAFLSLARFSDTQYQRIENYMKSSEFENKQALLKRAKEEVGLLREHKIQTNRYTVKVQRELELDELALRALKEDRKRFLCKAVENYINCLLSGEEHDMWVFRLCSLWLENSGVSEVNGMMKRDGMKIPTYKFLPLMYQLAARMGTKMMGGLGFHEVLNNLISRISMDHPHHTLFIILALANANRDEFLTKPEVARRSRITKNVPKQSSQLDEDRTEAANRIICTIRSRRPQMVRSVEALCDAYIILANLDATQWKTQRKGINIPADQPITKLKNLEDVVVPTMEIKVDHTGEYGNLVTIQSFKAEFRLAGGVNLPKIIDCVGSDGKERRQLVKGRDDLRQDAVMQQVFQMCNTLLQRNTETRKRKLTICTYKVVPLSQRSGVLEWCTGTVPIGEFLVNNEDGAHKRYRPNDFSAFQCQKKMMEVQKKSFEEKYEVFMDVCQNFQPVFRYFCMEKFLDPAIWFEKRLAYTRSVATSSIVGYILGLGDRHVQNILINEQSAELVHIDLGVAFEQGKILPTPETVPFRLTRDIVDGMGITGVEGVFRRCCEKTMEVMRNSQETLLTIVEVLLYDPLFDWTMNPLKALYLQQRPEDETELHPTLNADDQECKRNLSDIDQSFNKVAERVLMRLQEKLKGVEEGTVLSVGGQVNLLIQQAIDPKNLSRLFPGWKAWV
T1 sequence (Q8IWB6 whole entry, change not shown): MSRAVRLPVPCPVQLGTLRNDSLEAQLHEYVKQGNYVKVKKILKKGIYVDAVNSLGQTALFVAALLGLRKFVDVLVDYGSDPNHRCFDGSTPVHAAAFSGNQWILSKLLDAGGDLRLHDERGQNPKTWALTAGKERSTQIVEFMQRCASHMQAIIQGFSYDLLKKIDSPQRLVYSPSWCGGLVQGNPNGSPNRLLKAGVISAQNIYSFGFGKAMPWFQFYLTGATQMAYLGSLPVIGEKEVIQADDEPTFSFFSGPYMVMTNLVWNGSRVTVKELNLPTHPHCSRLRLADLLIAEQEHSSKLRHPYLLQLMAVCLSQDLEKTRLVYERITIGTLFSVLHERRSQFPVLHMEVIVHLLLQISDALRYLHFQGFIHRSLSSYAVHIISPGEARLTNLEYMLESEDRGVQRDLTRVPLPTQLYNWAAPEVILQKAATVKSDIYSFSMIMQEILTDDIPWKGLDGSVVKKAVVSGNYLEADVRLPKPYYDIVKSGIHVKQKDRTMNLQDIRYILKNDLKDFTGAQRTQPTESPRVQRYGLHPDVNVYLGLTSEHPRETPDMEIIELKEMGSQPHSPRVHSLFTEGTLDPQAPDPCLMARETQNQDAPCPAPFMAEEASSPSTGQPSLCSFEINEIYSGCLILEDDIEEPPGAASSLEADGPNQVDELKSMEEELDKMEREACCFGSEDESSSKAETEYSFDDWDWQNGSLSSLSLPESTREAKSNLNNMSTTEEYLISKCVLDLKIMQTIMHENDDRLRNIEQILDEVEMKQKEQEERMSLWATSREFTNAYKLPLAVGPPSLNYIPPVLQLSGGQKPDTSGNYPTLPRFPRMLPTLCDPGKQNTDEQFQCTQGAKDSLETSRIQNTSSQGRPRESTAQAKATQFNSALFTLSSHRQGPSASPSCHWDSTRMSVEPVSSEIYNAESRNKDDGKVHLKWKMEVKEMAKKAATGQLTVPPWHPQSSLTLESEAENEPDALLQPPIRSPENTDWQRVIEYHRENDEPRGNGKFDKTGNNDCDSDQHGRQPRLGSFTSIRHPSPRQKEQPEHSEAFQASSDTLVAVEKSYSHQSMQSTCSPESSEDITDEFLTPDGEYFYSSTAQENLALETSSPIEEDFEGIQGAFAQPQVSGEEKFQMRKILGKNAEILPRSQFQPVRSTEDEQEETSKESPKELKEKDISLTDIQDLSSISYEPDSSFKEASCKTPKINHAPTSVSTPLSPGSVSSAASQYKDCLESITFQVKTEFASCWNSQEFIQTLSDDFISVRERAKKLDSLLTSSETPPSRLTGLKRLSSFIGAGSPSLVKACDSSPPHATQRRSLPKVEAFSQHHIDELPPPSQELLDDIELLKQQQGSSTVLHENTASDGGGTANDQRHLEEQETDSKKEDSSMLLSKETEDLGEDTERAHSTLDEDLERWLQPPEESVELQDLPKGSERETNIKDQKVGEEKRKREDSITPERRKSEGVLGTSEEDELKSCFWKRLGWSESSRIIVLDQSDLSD
T6 sequence (P29401 whole entry): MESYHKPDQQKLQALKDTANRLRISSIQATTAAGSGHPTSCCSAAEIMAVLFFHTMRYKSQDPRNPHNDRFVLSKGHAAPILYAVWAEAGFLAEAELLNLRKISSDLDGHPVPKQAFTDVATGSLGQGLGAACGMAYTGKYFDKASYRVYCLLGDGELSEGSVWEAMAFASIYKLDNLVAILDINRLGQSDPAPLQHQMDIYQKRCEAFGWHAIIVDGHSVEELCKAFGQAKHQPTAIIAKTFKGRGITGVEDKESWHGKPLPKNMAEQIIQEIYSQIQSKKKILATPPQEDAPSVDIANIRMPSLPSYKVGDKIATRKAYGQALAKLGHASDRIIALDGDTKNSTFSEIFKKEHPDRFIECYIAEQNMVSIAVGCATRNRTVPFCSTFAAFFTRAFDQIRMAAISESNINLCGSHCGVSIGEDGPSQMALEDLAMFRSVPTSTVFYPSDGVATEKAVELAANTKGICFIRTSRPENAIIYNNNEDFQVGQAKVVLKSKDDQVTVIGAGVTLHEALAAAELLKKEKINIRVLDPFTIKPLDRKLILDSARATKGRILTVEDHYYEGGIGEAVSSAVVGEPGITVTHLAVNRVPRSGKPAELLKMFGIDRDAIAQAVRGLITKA

- IC50 (TEX14): > 10 µM
- IC50 (ATR): > 10 µM
- IC50 (N-TAF1): 9.66 µM
- IC50 (TTN): > 10 µM
- IC50 (SPEG): > 10 µM
- IC50 (ATM): > 10 µM
- IC50 (TKT): > 10 µM
- IC50 (PIK3R4): > 10 µM
- IC50 (OBSCN): > 10 µM
- IC50 (SMG1): > 10 µM
Structure (SMILES): Cc1nc(Nc2ncc(C(=O)Nc3c(C)cccc3Cl)s2)cc(N2CCN(CCO)CC2)n1 [Dasatinib]
